Experimental data published in publication PMC6720008, “A Novel Peptide Ameliorates LPS-Induced Intestinal Inflammation and Mucosal Barrier Damage via Its Antioxidant and Antiendotoxin Effects” (International Journal of Molecular Sciences, 2019).
Like-named read-outs stand apart in the source and are kept apart here. Ends that are not written are not given here.

Experiments:
[1] = In vitro LPS neutralization, chromogenic end-point TAL assay; format: biochemical; conditions: LPS 1.0 U/mL, peptide 0 to 64 μg/mL, 37 °C 15 min, absorbance 540 nm, three biological replicates
Procedure: Figure 9 LPS neutralization activity of LTP in vitro and in vivo. (A) The LPS concentration in mouse plasma. (B) In-vitro LPS neutralization by LTP. LPS neutralization activity of LTP, LL-37, TP5, and PMB were determined using the chromogenic in vitro TAL assay. Data are presented as the mean value ± standard error from three biological replicates. *: p ≤ 0.05, ****: p ≤ 0.0001.
The neutralization of LPS by the peptides was detected using a quantitative Chromogenic End-point Tachypleus Amebocyte Lysate (CE TAL) assay with the QCL-1000 kit (Xiamen, China). Experiments were carried out according to the institutional guidelines. A constant concentration of LPS (1.0 U/mL final concentration) was incubated with different concentrations of polymyxin B (PMB) or the peptides (0 to 64 μg/mL final concentration) at 37 °C for 15 min in the wells of pyrogenic sterile microliters plates. Subsequently, the mixtures were incubated at 37 °C for 6 min in the presence of TAL assay reagent, after which the absorbances were measured at 540 nm.

[2] = Ex vivo stability in plasma; format: in vitro ADME, rat
Procedure: Figure 2 The mean plasma concentrations of LL-37, TP5, and LTP over times. The concentration of each target peptide in plasma in vitro at the selected times was quantified by HPLC.
Rat plasma was collected from healthy adult rats by centrifugation of whole blood samples. LL-37, TP5, and LTP were directly added to rat plasma (10 μg/mL), after which the plasma samples were incubated in a 37 °C water bath. At different times, the samples were collected into pre-chilled tubes which contained 1 mL of acidic acetone (hydrochloric acid/acetone/H2O, 1:40:5, by volume). Subsequently, the mixture was centrifuged at 2 × 10^4 rpm at 4 °C for 20 min. The precipitates were dried in vacuo, after which the dried precipitates were dissolved in 0.5 mL of 1 M acetic acid. The peptide analysis was carried out according to the protocol for the study of TP5 using HPLC [64]. The half-lives of the peptides were calculated by a logarithm-linear regression analysis of the peptide concentrations.

[3] = test system: RAW264.7 macrophage cells; conditions: CCK-8, 24 h or 72 h
Procedure: RAW264.7 cells were pre-seeded in DMEM medium overnight. The cells were treated with various concentrations of peptides or without peptides at 37 °C and 5% CO2 for 24 h (A) or 72 h (B). They were incubated with CCK-8 solution for 4 h, and then, they were measured at 450 nm. Data are given as the mean value ± standard error from eight biological replicates. *: p ≤ 0.05, **: p ≤ 0.01, ***: p ≤ 0.001.
The murine macrophage cell line RAW264.7 was purchased from the Shanghai Cell Bank, the Institute of Cell Biology, China Academy of Sciences (Shanghai, China). RAW264.7 cells were cultured in Dulbecco’s modified Eagle’s medium (DMEM; Hyclone, Logan, UT, USA) supplemented with 10% (v/v) foetal bovine serum (Bioscience) and 1% (v/v) penicillin/streptomycin (Hyclone) in a 37 °C humidified incubator containing 5% CO2.
The viability of peptide-treated RAW264.7 cells was measured using the Cell Counting Kit-8 (CCK-8) Assay Kit (Dojindo, Japan) [63]. The cells were pre-seeded on a 96-well plate at a density of 3 × 10^4 cells/mL overnight. […] The absorbance at 450 nm was measured with a microplate reader. Cell viability was calculated as: Cell viability (%) = (OD450 (sample)/OD450(control)) × 100%(1) where OD450 (sample) is the absorbance at 450 nm of the cells with peptides treated, and OD450 (control) is the absorbance at 450 nm of the cells without peptides treated.

[4] = rat plasma, peptide 10 μg/mL, 37 °C water bath, HPLC, logarithm-linear regression, mean ± standard error, three biological replicates, read-out: t1/2

Compound: polymyxin B [PMB]
- 50% binding rate value (LPS neutralization) [1]: 1 µg/mL

Compound: IGKEFKRIVQRIKDFLRNLVPRTERKDVY [LTP]
- half-life at 10 μg/mL [2, 4]: 4 ± 0.919 h
- half-life in plasma t1/2: 4 h
- cytotoxicity on RAW264.7 cells compared with the parental peptides ([3]; eight biological replicates): lower cytotoxicity than LL-37 and TP5
- cytotoxicity towards RAW264.7 cells ([3]; highest concentration of 60 μg/mL, 37 °C, 5% CO2, absorbance 450 nm, mean of eight biological replicates): no significant cytotoxicity

Compound: CC[C@H](C)[C@H](NC(=O)[C@H](CCCCN)NC(=O)[C@H](CCC(=O)O)NC(=O)[C@H](CCCCN)NC(=O)[C@H](CO)NC(=O)[C@H](CCCCN)NC(=O)[C@H](CCCNC(=N)N)NC(=O)[C@H](Cc1ccccc1)NC(=O)[C@H](Cc1ccccc1)NC(=O)[C@H](CC(=O)O)NC(=O)CNC(=O)[C@H](CC(C)C)NC(=O)[C@@H](N)CC(C)C)C(=O)NCC(=O)N[C@@H](CCCCN)C(=O)N[C@@H](CCC(=O)O)C(=O)N[C@@H](Cc1ccccc1)C(=O)N[C@@H](CCCCN)C(=O)N[C@@H](CCCNC(=N)N)C(=O)N[C@H](C(=O)N[C@H](C(=O)N[C@@H](CCC(N)=O)C(=O)N[C@@H](CCCNC(=N)N)C(=O)N[C@H](C(=O)N[C@@H](CCCCN)C(=O)N[C@@H](CC(=O)O)C(=O)N[C@@H](Cc1ccccc1)C(=O)N[C@@H](CC(C)C)C(=O)N[C@@H](CCCNC(=N)N)C(=O)N[C@@H](CC(N)=O)C(=O)N[C@@H](CC(C)C)C(=O)N[C@H](C(=O)N1CCC[C@H]1C(=O)N[C@@H](CCCNC(=N)N)C(=O)N[C@H](C(=O)N[C@@H](CCC(=O)O)C(=O)N[C@@H](CO)C(=O)O)[C@@H](C)O)C(C)C)[C@@H](C)CC)C(C)C)[C@@H](C)CC [LL-37]
- half-life at 10 μg/mL ([2]; rat, plasma): 4.04 ± 0.752 h

Compound: RKDVY [TP5, Thymopentin]
- half-life at 10 μg/mL [2, 4]: 0.022 ± 0.004 h
- metabolised at 5 min, 10 μg/mL ([2]; rat plasma, peptide 10 μg/mL, 37 °C, HPLC, three biological replicates, read-out: decrease of plasma concentration after incubation for 5 min): 95%
